# Test results taken from paper PMC12090182, “Repurposing of the RIPK1-Selective Benzo[1,4]oxazepin-4-one Scaffold for the Development of a Type III LIMK1/2 Inhibitor” (ACS Chemical Biology, 2025).
# Like-named read-outs stand apart in the source and are kept apart here.
# How the values were obtained:
# BRPF1B = BRPF1B (Homo sapiens, UniProt P55201); assay: DSF selectivity screening; type: binding; settings: 10 μM compound
# BRD4 = BRD4 (Homo sapiens, UniProt O60885); assay: DSF selectivity screening; type: binding; settings: 10 μM compound
# JAK2 (V617F) = JAK2 (V617F) (Homo sapiens, UniProt O60674, V617F); assay: cell-based; settings: HEK-293T; 1 μM inhibitor, HEK293T cells
# BRSK1 = BRSK1 (Homo sapiens, UniProt Q8TDC3); type: cell-based; settings: HEK-293T; 1 μM inhibitor, HEK293T cells
# Protocol: For plate preparation, a transfection mix was prepared in white 384-well small-volume plates (Greiner, cat. no. 784075) by preplating 3 μL of 20 μL/mL FuGene HD (Promega, cat. no. E2311), diluted in an Opti-MEM medium (Gibco, cat. no. 11058-021). One μL of DNA from both DNA vector source plates of the K192 kit was added using an Echo 550 acoustic dispenser (Beckman Coulter). The mix was incubated for 30 min, and 6 μL of HEK293T cells in an Opti-MEM medium was added. The proteins were allowed to express for 20 h. After expression, Tracer K10 was added using the concentrations recommended in the K192 technical manual and a 1 μM inhibitor was added to every second well. […] Five μL of substrate solution was added to every well, and filtered luminescence was measured on a PHERAstar plate reader (BMG Labtech) equipped with a luminescence filter pair (450 nm BP filter (donor) and a 610 nm LP filter (acceptor)). For every kinase, occupancy was calculated and plotted using GraphPad Prism 10 (Table S5).
# WNK2 = WNK2 (Homo sapiens, UniProt Q9Y3S1); assay: scanMAX KINOMEscan (Eurofins); type: binding
# [1] = molecular target: ABL1(H396P)-nonphosphorylated (Homo sapiens, UniProt P00519, H396P); assay: biochemical; type: binding; settings: read-out: Percent Control
# MET(M1250T) = MET(M1250T) (Homo sapiens, UniProt P08581, M1250T); assay: biochemical; type: binding; settings: 1000 nM, read-out: Percent Control
# KIT(V559D) = KIT(V559D) (Homo sapiens, UniProt P10721, V559D); assay: biochemical; type: binding; settings: 1000 nM, read-out: Percent Control
# EGFR(G719C) = EGFR(G719C) (Homo sapiens, UniProt P00533, G719C); assay: biochemical; type: binding; settings: 1000 nM, read-out: Percent Control
# LRRK2(G2019S) = LRRK2(G2019S) (Homo sapiens, UniProt Q5S007, G2019S); assay: biochemical; type: binding; settings: read-out: Percent Control
# PIK3CA(M1043I) = PIK3CA(M1043I) (Homo sapiens, UniProt P42336, M1043I); assay: biochemical; type: binding; settings: read-out: Percent Control
# FLT3(R834Q) = FLT3(R834Q) (Homo sapiens, UniProt P36888, R834Q); assay: biochemical; type: binding; settings: 1000 nM, read-out: Percent Control
# KIT(V559D,V654A) = KIT(V559D,V654A) (Homo sapiens, UniProt P10721, V559D/V654A); assay: biochemical; type: binding; settings: read-out: Percent Control
# PIK3CA(C420R) = PIK3CA(C420R) (Homo sapiens, UniProt P42336, C420R); assay: biochemical; type: binding; settings: read-out: Percent Control
# MET(Y1235D) = MET(Y1235D) (Homo sapiens, UniProt P08581, Y1235D); assay: biochemical; type: binding; settings: 1000 nM, read-out: Percent Control
# [2] = molecular target: ABL1(E255K)-phosphorylated (Homo sapiens, UniProt P00519, E255K); assay: biochemical; type: binding; settings: read-out: Percent Control
# PIK3CA(E542K) = PIK3CA(E542K) (Homo sapiens, UniProt P42336, E542K); assay: biochemical; type: binding; settings: read-out: Percent Control
# FLT3(N841I) = FLT3(N841I) (Homo sapiens, UniProt P36888, N841I); assay: biochemical; type: binding; settings: 1000 nM, read-out: Percent Control
# PIK3CA(E545K) = PIK3CA(E545K) (Homo sapiens, UniProt P42336, E545K); assay: biochemical; type: binding; settings: read-out: Percent Control
# [3] = molecular target: ABL1(F317I)-phosphorylated (Homo sapiens, UniProt P00519, F317I); assay: biochemical; type: binding; settings: read-out: Percent Control
# [4] = molecular target: T1, ABL1(M351T)-phosphorylated (Homo sapiens, UniProt P00519, M351T); assay: biochemical; type: binding; settings: read-out: Percent Control
# [5] = molecular target: EGFR(L747-E749del, A750P) (Homo sapiens, UniProt P00533, A750P/DEL747-749); assay: biochemical; type: binding; settings: read-out: Percent Control
# FLT3(K663Q) [6] = molecular target: T2, FLT3(K663Q) (Homo sapiens, UniProt P36888, K663Q); assay: biochemical; type: binding; settings: 1000 nM, read-out: Percent Control
# [7] = molecular target: ABL1(T315I)-phosphorylated (Homo sapiens, UniProt P00519, T315I); assay: biochemical; type: binding; settings: compound concentration 100 nM; Entrez ABL1; read-out: Percent Control
# [8] = molecular target: T1, ABL1(M351T)-phosphorylated; assay: biochemical; type: binding; settings: compound concentration 100 nM; Entrez ABL1; read-out: Percent Control
# FLT3(ITD,F691L) = type: binding; settings: compound concentration 100 nM; Entrez FLT3
# FLT3(K663Q) [9] = molecular target: T2, FLT3(K663Q); assay: biochemical; type: binding; settings: compound concentration 100 nM; Entrez FLT3; read-out: Percent Control
# KIT(D816V) = KIT(D816V) (Homo sapiens, UniProt P10721, D816V); assay: biochemical; type: binding; settings: compound concentration 100 nM; Entrez KIT; read-out: Percent Control
# LIMK1 = LIMK1 (Homo sapiens, UniProt P53667); assay: Differential scanning fluorimetry assay for LIMK1/2; type: binding; settings: LIMK1, 10 μM compound
# Protocol: The assay was performed according to a previously established protocol. […] The compounds to be tested were added to a final concentration of 10 μM. […] Data were analyzed with MxPro software.
# Chain of WNK2 (Q9Y3S1 whole entry): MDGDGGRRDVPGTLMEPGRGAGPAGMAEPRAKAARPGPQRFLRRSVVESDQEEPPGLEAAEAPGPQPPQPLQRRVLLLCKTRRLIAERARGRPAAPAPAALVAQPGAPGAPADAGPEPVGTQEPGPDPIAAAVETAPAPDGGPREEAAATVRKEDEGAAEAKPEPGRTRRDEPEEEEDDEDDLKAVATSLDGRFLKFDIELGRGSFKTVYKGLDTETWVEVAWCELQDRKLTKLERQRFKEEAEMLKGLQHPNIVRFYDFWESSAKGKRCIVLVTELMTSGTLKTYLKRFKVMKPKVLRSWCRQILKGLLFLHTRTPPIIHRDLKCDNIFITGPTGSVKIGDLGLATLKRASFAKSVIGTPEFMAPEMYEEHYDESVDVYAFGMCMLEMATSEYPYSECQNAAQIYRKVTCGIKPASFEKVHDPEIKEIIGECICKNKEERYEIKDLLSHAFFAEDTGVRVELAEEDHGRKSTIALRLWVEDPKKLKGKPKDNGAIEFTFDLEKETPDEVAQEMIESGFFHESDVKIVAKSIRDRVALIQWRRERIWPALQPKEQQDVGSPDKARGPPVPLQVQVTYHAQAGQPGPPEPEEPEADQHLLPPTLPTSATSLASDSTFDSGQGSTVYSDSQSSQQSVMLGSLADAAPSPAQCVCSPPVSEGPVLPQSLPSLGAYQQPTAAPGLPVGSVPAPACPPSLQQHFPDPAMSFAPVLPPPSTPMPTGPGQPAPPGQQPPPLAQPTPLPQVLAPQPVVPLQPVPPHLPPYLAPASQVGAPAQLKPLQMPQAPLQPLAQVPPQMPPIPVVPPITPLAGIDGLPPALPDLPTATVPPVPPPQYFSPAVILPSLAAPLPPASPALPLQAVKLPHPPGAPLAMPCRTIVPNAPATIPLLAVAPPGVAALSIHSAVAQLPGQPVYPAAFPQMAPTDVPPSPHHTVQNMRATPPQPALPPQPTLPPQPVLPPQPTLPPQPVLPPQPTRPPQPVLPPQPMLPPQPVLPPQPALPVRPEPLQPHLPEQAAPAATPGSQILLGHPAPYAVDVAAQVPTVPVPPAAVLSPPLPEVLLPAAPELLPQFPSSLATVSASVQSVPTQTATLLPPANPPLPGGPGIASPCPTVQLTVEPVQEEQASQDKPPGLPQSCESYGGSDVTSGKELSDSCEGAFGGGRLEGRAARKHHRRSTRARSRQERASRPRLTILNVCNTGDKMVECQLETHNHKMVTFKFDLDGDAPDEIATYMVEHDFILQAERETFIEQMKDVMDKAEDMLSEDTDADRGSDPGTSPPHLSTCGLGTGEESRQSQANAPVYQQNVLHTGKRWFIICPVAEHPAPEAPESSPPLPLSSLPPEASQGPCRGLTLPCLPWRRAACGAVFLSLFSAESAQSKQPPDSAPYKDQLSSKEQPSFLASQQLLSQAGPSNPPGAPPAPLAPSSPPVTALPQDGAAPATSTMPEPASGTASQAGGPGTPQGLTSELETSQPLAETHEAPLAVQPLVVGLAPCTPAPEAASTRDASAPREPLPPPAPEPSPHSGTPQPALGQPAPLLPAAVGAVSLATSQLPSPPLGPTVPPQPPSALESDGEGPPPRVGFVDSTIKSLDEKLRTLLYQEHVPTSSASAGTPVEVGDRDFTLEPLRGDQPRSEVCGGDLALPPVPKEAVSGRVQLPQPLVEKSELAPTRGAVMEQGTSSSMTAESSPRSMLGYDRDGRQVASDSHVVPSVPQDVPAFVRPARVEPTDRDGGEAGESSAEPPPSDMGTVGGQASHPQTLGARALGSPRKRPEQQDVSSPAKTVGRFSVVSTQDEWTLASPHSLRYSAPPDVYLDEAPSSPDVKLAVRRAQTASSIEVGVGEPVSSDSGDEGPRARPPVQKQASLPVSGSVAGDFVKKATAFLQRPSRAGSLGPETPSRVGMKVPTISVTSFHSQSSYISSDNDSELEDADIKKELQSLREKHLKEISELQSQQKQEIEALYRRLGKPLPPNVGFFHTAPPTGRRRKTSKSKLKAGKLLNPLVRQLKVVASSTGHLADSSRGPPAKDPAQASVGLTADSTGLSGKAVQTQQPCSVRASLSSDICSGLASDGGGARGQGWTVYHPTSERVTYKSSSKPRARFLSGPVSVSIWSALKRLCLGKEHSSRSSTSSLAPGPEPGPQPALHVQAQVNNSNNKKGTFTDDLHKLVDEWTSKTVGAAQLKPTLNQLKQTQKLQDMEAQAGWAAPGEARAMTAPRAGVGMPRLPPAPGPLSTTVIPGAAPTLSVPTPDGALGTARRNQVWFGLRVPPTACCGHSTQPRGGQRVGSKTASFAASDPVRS
# Chain of BRSK1 (Q8TDC3 whole entry): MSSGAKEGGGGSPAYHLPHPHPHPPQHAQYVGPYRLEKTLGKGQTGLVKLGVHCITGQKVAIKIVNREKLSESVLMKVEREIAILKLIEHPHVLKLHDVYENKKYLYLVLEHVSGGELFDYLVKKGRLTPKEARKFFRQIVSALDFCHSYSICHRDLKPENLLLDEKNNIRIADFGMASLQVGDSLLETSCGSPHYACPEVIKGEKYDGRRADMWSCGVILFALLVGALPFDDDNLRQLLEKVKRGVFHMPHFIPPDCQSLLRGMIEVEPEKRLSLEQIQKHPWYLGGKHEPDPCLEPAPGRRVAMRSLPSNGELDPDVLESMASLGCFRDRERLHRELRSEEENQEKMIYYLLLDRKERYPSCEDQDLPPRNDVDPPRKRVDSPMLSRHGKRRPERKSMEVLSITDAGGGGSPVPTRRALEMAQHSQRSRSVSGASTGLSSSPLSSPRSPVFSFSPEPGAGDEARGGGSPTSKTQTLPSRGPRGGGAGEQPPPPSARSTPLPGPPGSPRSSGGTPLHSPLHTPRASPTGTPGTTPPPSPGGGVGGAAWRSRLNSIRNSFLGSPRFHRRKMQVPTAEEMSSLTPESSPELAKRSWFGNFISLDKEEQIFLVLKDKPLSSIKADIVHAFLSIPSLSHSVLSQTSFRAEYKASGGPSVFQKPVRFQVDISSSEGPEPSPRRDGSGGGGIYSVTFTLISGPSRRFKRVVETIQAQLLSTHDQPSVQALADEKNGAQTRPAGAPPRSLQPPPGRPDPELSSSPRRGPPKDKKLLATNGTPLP
# Chain of PIK3CA(C420R) (P42336 whole entry C420R): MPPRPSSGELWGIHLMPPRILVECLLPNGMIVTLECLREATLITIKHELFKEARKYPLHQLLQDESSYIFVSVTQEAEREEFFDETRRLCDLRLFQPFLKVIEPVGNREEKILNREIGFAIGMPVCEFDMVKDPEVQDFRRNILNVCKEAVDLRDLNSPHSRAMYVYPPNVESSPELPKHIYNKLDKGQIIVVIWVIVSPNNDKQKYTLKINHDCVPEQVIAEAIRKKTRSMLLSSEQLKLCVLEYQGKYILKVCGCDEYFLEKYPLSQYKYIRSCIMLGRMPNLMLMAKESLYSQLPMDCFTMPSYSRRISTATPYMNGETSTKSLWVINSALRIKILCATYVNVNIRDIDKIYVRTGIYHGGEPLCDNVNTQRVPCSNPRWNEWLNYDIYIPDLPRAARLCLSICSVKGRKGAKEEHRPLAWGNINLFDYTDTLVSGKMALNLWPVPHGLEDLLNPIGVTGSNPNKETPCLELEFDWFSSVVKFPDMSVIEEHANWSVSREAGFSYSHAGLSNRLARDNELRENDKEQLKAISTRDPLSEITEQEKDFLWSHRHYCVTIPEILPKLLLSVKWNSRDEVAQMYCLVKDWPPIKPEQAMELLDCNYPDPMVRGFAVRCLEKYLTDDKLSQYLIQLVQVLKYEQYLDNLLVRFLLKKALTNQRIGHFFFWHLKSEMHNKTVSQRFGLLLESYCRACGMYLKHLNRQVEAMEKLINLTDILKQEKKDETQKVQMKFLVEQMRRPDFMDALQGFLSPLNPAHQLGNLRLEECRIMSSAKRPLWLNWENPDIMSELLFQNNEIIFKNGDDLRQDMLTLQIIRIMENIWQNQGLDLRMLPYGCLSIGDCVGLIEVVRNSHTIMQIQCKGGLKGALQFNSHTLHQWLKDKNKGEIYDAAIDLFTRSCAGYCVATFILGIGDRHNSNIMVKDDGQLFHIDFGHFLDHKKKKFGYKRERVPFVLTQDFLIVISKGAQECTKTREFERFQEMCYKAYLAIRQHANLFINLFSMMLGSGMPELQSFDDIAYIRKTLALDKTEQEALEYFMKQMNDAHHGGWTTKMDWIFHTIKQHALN
# Chain of PIK3CA(E542K) (P42336 whole entry E542K): as the sequence (P42336 whole entry C420R) above, with R420C, E542K counted along it
# Chain of KIT(D816V) (P10721 26-976 D816V): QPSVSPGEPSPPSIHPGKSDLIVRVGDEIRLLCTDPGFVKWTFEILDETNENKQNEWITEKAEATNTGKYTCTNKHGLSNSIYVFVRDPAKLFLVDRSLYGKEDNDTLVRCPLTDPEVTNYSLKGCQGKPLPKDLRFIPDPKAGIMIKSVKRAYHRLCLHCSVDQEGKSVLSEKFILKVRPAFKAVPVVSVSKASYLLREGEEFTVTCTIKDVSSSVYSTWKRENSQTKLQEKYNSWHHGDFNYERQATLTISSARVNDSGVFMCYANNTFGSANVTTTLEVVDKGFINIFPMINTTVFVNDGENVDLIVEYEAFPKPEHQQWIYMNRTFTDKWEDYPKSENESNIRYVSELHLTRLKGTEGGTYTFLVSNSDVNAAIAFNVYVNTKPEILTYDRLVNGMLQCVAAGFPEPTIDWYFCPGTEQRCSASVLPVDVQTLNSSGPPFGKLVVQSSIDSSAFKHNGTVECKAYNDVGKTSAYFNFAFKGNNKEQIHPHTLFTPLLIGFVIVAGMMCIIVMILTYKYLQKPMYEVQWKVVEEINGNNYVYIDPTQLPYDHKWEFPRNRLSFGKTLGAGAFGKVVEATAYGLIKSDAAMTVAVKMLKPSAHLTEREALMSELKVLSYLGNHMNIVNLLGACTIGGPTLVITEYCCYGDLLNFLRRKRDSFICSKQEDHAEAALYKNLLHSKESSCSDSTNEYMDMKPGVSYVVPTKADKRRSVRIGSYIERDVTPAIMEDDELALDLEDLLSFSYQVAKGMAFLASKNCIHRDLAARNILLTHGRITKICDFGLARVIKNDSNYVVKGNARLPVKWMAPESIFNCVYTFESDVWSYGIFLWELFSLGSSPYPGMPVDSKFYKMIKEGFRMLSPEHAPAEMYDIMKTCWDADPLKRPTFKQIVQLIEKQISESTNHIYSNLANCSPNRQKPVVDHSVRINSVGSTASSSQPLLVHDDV
compound,measurement,setting,value
"CN1C(=O)[C@@H](N2CCc3c(nn(Cc4ccccc4)c3C(N)=O)C2=O)COc2cc(Cl)ccc21 [Compound 10, (S)-2-benzyl-6-(8-chloro-5-methyl-4-oxo-2,3,4,5-tetrahydrobenzo[b][1,4]oxazepin-3-yl)-7-oxo-4,5,6,7-tetrahydro-2H-pyrazolo[3,4-c]pyridine-3-carboxamide]",ΔTm at 10 µM,BRPF1B,-0.1 °C
same,ΔTm at 10 µM,BRD4,-1.4 °C
same,receptor occupancy at 1 µM,JAK2 (V617F),2.27%
same,receptor occupancy at 1 µM,BRSK1,3.37%
same,remaining binding at 0.1 µM,"WNK2; WNK2 (Entrez WNK2), 100 nM, read-out: Percent Control",100%
same,remaining binding at 1 µM,"WNK2; WNK2, 1 μM, read-out: POC (Top Hits @ 1 μM)",49%
same,remaining binding at 1 µM,"WNK2; WNK2, 1000 nM, read-out: Percent Control",49%
same,remaining activity at 1 µM,[1],66%
same,remaining activity at 1 µM,MET(M1250T),83%
same,remaining activity at 1 µM,KIT(V559D),85%
same,remaining activity at 1 µM,EGFR(G719C),86%
same,remaining activity at 1 µM,LRRK2(G2019S),86%
same,remaining activity at 1 µM,PIK3CA(M1043I),87%
same,remaining activity at 1 µM,FLT3(R834Q),92%
same,remaining activity at 1 µM,"KIT(V559D,V654A)",92%
same,remaining activity at 1 µM,PIK3CA(C420R),92%
same,remaining activity at 1 µM,MET(Y1235D),93%
same,remaining activity at 1 µM,[2],94%
same,remaining activity at 1 µM,PIK3CA(E542K),94%
same,remaining activity at 1 µM,FLT3(N841I),96%
same,remaining activity at 1 µM,PIK3CA(E545K),97%
same,remaining activity at 1 µM,[3],100%
same,remaining activity at 1 µM,[4],100%
same,remaining activity at 1 µM,[5],100%
same,remaining activity at 1 µM,FLT3(K663Q) [6],100%
same,remaining activity at 0.1 µM,[7],72%
same,remaining activity at 0.1 µM,[8],92%
same,Percent Control,"FLT3(ITD,F691L)",100
same,remaining activity at 0.1 µM,FLT3(K663Q) [9],100%
same,remaining activity at 0.1 µM,KIT(D816V),100%
CN1C(=O)[C@@H](N2CCc3c(C(N)=O)nn(Cc4ccccc4)c3C2=O)COc2ccccc21 [Compound 11],ΔTM (stabilization in the DSF assay),LIMK1,inactive
